For series [1], the system named is gastric acidity. Put plainly: SAN-15-CO1C trial: gastric pH monitoring, omeprazole powder with or without antacid. The following applies: omeprazole 40 mg, administered 1 hour pre-meal, 10 subjects. The format is in vivo, human.
Protocol: Pharmacodynamic parameters disclosed herein include: (1) mean gastric acid concentration; (2) onset time of gastric pH increase; (3) gastric pH over time; (4) length of time gastric pH is >4; (5) percentage (%) of time gastric pH is time pH>4 (in figures as “% time pH>4”); (6) median gastric pH; and (7) integrated gastric acidity, which is expressed as mM acid×time, (mmol acid×hr/L) is calculated as the cumulative time-weighted average of mean gastric acid concentration, as follows:
(§1) This trial protocol is designed as a single-dose crossover trial. […] Each dose was followed by a 7-14 day washout. The same treatment was administered to all subjects in each trial period:
For periods requiring a meal, subjects fasted for at least 10 hours and were allowed water ad libitum until 2 hours prior to administration. Gastric pH monitoring was recorded for up to 11 hours beginning at time zero. The standard breakfast was ingested over 30 minutes beginning 90 minutes after the initiation of pH monitoring.
For periods including dosing after a meal, subjects fasted for at least 10 hours. On Day 0, ninety minutes of probe pH monitoring was started prior to initiating ingestion of the standardized breakfast, which was eaten within 30 minutes. The pH monitoring continued for 9.5 hours after initiating ingestion of breakfast. […]
The nature of series [2]: clinical. The following applies: human, plasma, oral, 40 mg.
Description: Pharmacokinetic parameters disclosed herein include: (1) parameters obtained directly from the data without interpolation, including plasma omeprazole concentration, peak omeprazole plasma concentration (Cmax), and time to peak omeprazole plasma concentration (Tmax); (2) terminal elimination rate constant (kel) determined from a log-linear regression analysis of the terminal plasma omeprazole concentrations; (3) terminal elimination half-life (t1/2) calculated as 0.693/kel; (4) area under the omeprazole plasma concentration-time curve from time zero to time “t” (AUCo-t), calculated using the trapezodial rule with the plasma concentration at time “t” being the last measurable concentration; (5) area under the omeprazole plasma concentration-time curve from time zero to time infinity (AUC0-inf), calculated as AUC0-t+Ct/kel, where Ct is the last measurable plasma concentration and kel is the terminal elimination rate constant defined above.
Blood samples (10 mL) were taken within 30 minutes predose and up to 12 hours postdose; eg, postdose at 5, 10, 15, 30, 45, 60, 90, 120, 180, 240, 300, 360 minutes, and up to 12 hours in some studies.
as §1
For the periods including omeprazole powder plus tablet administration, the subject received omeprazole powder administered directly onto the dorsal mid-tongue Immediately thereafter, subjects were given one chewable antacid tablet, which they began chewing. The subject continued to chew the tablet while mixing it with omeprazole powder, and carefully avoided swallowing the powder immediately. One minute after initiating chewing (and after completely swallowing trial medications), each subject drank 120 mL of water, swishing the oral contents before swallowing.
Pharmacokinetic evaluations include plasma omeprazole and esomeprazole concentration over time; and plasma omeprazole and esomeprazole C., Tmax, kel, T1/2, AUC(0-t), and AUC(0-inf).

SMILES strings stand for the structures.

For `COc1ccc2[nH]c([S+]([O-])Cc3ncc(C)c(OC)c3C)nc2c1` (stereo not shown) [Omeprazole Powder], the “Median Integrated Gastric Acidity 0-210 min. Post-meal” value in series [1] was 35 mmol·h/L. In series [2], this molecule registered an AUC(0-inf) of 225 ng·h/mL, an AUC(0-t) of 225 ng·h/mL and a Cmax of 186 ng/mL.

The AUC(0-inf) is total exposure, with the tail of the curve extrapolated. Usually AUC(0-t) stands for exposure summed from dosing to a finite time, without extrapolation to infinity. Lower therefore signals low exposure. Usually Cmax stands for the maximum level reached in the sampled fluid or tissue.

These data come from patent US20150011588A1, “Novel formulation, omeprazole antacid complex-immediate release for rapid and sustained suppression of gastric acid” (priority 2003, published 2015).
